Experimental data published in patent publication US8912227B1, “Bicyclic pyrrole derivatives useful as agonists of GPR120” (Janssen Pharmaceutica NV, priority 2014, dated 2014).

How the values were obtained:
Human GPR120 short form [1] = biological target: T1, Human GPR120 short form (Homo sapiens, UniProt Q5NUL3); assay: Human GPR120 calcium flux assay, Procedure Calcium B; type: cell-based; conditions: HEK-293 cells expressing human GPR120 short form, 4200 cells/well, FLIPR
T1 construct: expressed in transfected cells
T1 sequence (Q5NUL3 1-361): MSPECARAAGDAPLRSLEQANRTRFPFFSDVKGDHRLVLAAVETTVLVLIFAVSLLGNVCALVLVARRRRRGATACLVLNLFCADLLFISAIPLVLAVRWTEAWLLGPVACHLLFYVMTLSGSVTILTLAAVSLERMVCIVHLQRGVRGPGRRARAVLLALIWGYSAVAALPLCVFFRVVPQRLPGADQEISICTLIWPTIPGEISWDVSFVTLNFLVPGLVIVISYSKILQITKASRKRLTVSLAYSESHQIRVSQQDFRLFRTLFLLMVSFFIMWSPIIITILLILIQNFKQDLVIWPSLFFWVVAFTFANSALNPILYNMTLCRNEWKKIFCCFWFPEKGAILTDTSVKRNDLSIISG
Text: (§1) This in vitro assay serves to assess test compound agonist activity against the short splice variant (SVS with Accession number NM_001195755.1 confirmed by sequencing data) of the GPR120 receptor. The Human Short splice variant #2 (NM_001195755.1) is missing an in-frame coding exon compared to variant 1 (the Human Long splice variant NM_181745.3), resulting in a shorter isoform (GPR120-S) lacking a 16 aa protein segment compared to isoform GPR120-L. The assay platform utilizes HEK-293 cells stably transfected to express the Human GPR120 short form. These cells are first loaded with the Ca^+2 sensitive dye, Fluo-4 NW. Upon stimulation, intracellular released Ca^+2 can bind to the dye and alter its fluorescence intensity. This increase in fluorescence signal, and thus the flux in intracellular [Ca^2+], is detected and quantitated by fluorescence imaging using a FLIPR reader. The effect of the agonist is measured as a function of concentration and used to calculate an EC50 based upon a response curve.
In this procedure 4200 cells/well were employed.
(§2) A Human GPR120 clone (Genbank accession number NM_001195755.1) was placed into the pcDNA3.1 mammalian expression vector carrying the neomycin resistance gene. A stable mammalian cell was generated by placing the above clone into a HEK293 background. Clonal cells responding to long chain fatty acids had expression levels of GPR120 confirmed by RT-qPCR. Human HEK-GPR120 cells were cultured in Dulbecco's Modified Eagle's Medium (DMEM)/F12 medium supplemented with 10% fetal bovine serum (FBS), 1% L-Glutamine and 1% penicillin/streptomycin and 0.5 mg/ml G-418. Cells were split 2 times a week to keep the cells in the log-phase growth.
(§3) In preparation for the assay, HEK cells stably transfected with Human GPR120 (2.5K cells per well in 25 uL growth medium) were seeded into 384-well plates and then incubated overnight (37° C., 5% CO2). The next day, the media was changed to 20 μl assay buffer and the cell starved for 1 h at 37° C. The dye loading solution (2× dye) was prepared using 10 ml assay buffer, 100 μl of 250 mM probenecid, 1 bottle of Component A, and 20 μl of dye in DMSO. Twenty μl of the 2× dye loading buffer was then added to each well. The plates were incubated at 37° C. for 30 min, then at room temperature for an additional 15 minutes, before performing the assay on FLIPR.
(§4) Test compounds were prepared in assay buffer (2 μl of test compound+198 μl assay buffer, final DMSO in assay plate is 0.2%) at the desired concentration, more particularly at 100 μM, 50 μM, 25 μM, 12.5 μM, 6.25 μM, 3.125 μM, 1.562 μM, 0.781 μM, 0.391 μM, 0.195 μM, 0.098 μM, 0.049 μM, 0.024 μM and 0.012 μM.
(§5) The assay was performed on a FLIPR plate reader using the following parameters. Baseline was read for 10 seconds at 1 sec intervals. The program was set to transfer 10 μL of ligand from compound plate to cell plate after baseline reading. Aspiration was executed at: 10 μl/sec speed, 4.6 μl height; Dispensing was executed at: 30 μl/sec speed, 45 μl height. After compound addition, each well was read for 300 sec, with measurements collected at 1 sec intervals.
(§6) The kinetic data from the FLIPR was based upon a 5 minute window for data collection. The fluorescence of each sample well was used for individual calculations of a normalized RFU value, which was defined as maximum response minus the minimum response. The normalized fluorescence reading (RFU) was calculated as follows: RFU=Fmax−Fmin
(§7) The data were fitted to a sigmoidal dose-response curve with a variable Hill slope (<2) using nonlinear regression with GraphPad Prism 5.0 to calculate the EC50 values. The Fitting Equation was: Y=Bottom+(Top−Bottom)/(1+10^((LogEC50−X)*HillSlope)), where X is the log of the concentration and Y is the response.

Human GPR120 short form [2] = biological target: T1, Human GPR120 short form; assay: Human GPR120 calcium flux assay, Procedure Calcium A; type: cell-based; conditions: HEK-293 cells expressing human GPR120 short form, 2500 cells/well, FLIPR
Text: as §1
In this procedure 2500 cells/well were employed.
as §2, §3, §4, §5, §6, §7

| Structure (SMILES) | EC50 (Human GPR120 short form [1]) [nM] | EC50 (Human GPR120 short form [2]) [nM] |
| --- | --- | --- |
| O=C(O)CCc1ccc(OCc2c(C(F)(F)F)ccn2-c2ccc(F)cc2)cc1C(F)(F)F [Compound 82, 3-[4-{[1-(4-Fluorophenyl)-3-(trifluoromethyl)-1H-pyrrol-2-yl]methoxy}-2-(trifluoromethyl)phenyl]propanoic acid] | 834 | – |
| O=C(O)CCc1ccc(OCc2cccn2-c2ccc(Cl)cc2)c(F)c1F [Compound 4, 3-(4-{[1-(4-Chlorophenyl)-1H-pyrrol-2-yl]methoxy}-2,3-difluorophenyl)propanoic acid] | – | > 20000 |
| Cc1c(CCCO)ccc(OCc2c(Cl)ccn2-c2ccc(Cl)cc2)c1C [Compound 7, 3-(4-{[3-Chloro-1-(4-chlorophenyl)-1H-pyrrol-2-yl]methoxy}-2,3-dimethylphenyl)propan-1-ol] | 1170 | 1730 |
| Cc1c(CCCO)ccc(OCc2c(C(F)(F)F)ccn2-c2ccc(Br)cc2)c1C [Compound 18, 3-(4-{[1-(4-Bromophenyl)-3-(trifluoromethyl)-1H-pyrrol-2-yl]methoxy}-2,3-dimethylphenyl)propan-1-ol] | 611 | 1300 |
| O=C(O)CCc1cc(F)c(OCc2c(C(F)(F)C(F)(F)F)ccn2-c2ccc(Cl)cc2)c(F)c1 [Compound 63, 3-(4-((1-(4-chlorophenyl)-3-(perfluoroethyl)-1H-pyrrol-2-yl)methoxy)-3,5-difluorophenyl)propanoic acid] | 1150 | – |
| Cc1c(CCC(=O)O)ccc(OCc2c(C#N)ccn2-c2ccc(Cl)cc2)c1C [Compound 12, 3-(4-{[1-(4-Chlorophenyl)-3-cyano-1H-pyrrol-2-yl]methoxy}-2,3-dimethylphenyl)propanoic acid] | 1140 | 4260 |
| Cc1ccc(-n2ccc(C(F)(F)F)c2COc2ccc(CCCO)c(C)c2C)cc1 [Compound 45, 3-(2,3-dimethyl-4-[[1-(4-methylphenyl)-3-(trifluoromethyl)-1H-pyrrol-2-yl]methoxy]phenyl)propan-1-ol] | 512 | 1440 |
| O=C(O)CCc1ccc(OCc2c(C(F)(F)F)ccn2-c2cccc(F)c2)cc1Cl [Compound 79, 3-(2-Chloro-4-{[1-(3-fluorophenyl)-3-(trifluoromethyl)-1H-pyrrol-2-yl]methoxy}phenyl)propanoic acid] | 998 | – |
| Cc1c(CCC(=O)O)ccc(OCc2c(Br)ccn2-c2ccc(Cl)cc2)c1C [Compound 14, 3-(4-{[3-Bromo-1-(4-chlorophenyl)-1H-pyrrol-2-yl]methoxy}-2,3-dimethylphenyl)propanoic acid] | 1400 | 2890 |
| O=C(O)CCc1ccc(OCc2c(C(F)(F)F)ccn2-c2cccc(F)c2)cc1C(F)(F)F [Compound 81, 3-[4-{[1-(3-Fluorophenyl)-3-(trifluoromethyl)-1H-pyrrol-2-yl]methoxy}-2-(trifluoromethyl)phenyl]propanoic acid] | 675 | – |
| CCc1ccc(-n2cccc2COc2ccc(CCC(=O)O)c(C)c2C)cc1 [Compound 2, 3-(4-{[1-(4-Ethylphenyl)-1H-pyrrol-2-yl]methoxy}-2,3-dimethylphenyl)propanoic acid] | – | > 20000 |
| O=C(O)CCc1ccc(OCc2c(C(F)(F)F)ccn2-c2ccc(F)cc2)cc1Cl [Compound 80, 3-(2-Chloro-4-{[1-(4-fluorophenyl)-3-(trifluoromethyl)-1H-pyrrol-2-yl]methoxy}phenyl)propanoic acid] | 923 | – |
| Cc1c(CCC(=O)O)ccc(OCc2c(C(F)(F)F)ccn2-c2cccc(F)c2)c1C [Compound 84, 3-(4-{[1-(3-Fluorophenyl)-3-(trifluoromethyl)-1H-pyrrol-2-yl]methoxy}-2,3-dimethylphenyl)propanoic acid] | 489 | – |

Next, values leading:

| EC50 (Human GPR120 short form [1]) [nM] | EC50 (Human GPR120 short form [2]) [nM] | Structure (SMILES) |
| --- | --- | --- |
| 404 | – | Cc1cc(CCC(=O)O)ccc1OCc1c(C(F)(F)F)ccn1-c1cccc(F)c1 [Compound 88, 3-(4-{[1-(3-Fluorophenyl)-3-(trifluoromethyl)-1H-pyrrol-2-yl]methoxy}-3-methylphenyl)propanoic acid] |
| 448 | – | O=C(O)CCc1cc(F)c(OCc2c(C(F)(F)F)ccn2-c2cccc(F)c2)c(F)c1 [Compound 85, 3-(3,5-Difluoro-4-{[1-(3-fluorophenyl)-3-(trifluoromethyl)-1H-pyrrol-2-yl]methoxy}phenyl)propanoic acid] |
| 197 | 675 | COc1ccc(-n2ccc(C(F)(F)F)c2COc2c(F)cc(CCC(=O)O)cc2F)cn1 [Compound 51, 3-(3,5-difluoro-4-[[1-(6-methoxypyridin-3-yl)-3-(trifluoromethyl)-1H-pyrrol-2-yl]methoxy]phenyl)propanoic acid] |
| 346 | – | Cc1c(CCC(=O)O)ccc(OCc2c(C(F)(F)F)ccn2-c2ccc(F)cc2)c1C [Compound 83, 3-(4-{[1-(4-Fluorophenyl)-3-(trifluoromethyl)-1H-pyrrol-2-yl]methoxy}-2,3-dimethylphenyl)propanoic acid] |
| 71 | 285 | COc1ccc(-n2ccc(C(F)(F)F)c2COc2c(F)cc(CCCO)cc2F)cn1 [Compound 52, 3-(3,5-difluoro-4-[[1-(6-methoxypyridin-3-yl)-3-(trifluoromethyl)-1H-pyrrol-2-yl]methoxy]phenyl)propan-1-ol] |
| 58 | 395 | COc1ccc(-n2ccc(C(F)(F)F)c2COc2ccc(CCCO)c(F)c2F)cn1 [Compound 50, 3-(2,3-difluoro-4-[[1-(6-methoxypyridin-3-yl)-3-(trifluoromethyl)-1H-pyrrol-2-yl]methoxy]phenyl)propan-1-ol] |
| 134 | – | O=C(O)CCc1cc(F)c(OCc2c(C(F)(F)F)ccn2-c2ccc(F)cc2)c(F)c1 [Compound 87, 3-(3,5-Difluoro-4-{[1-(4-fluorophenyl)-3-(trifluoromethyl)-1H-pyrrol-2-yl]methoxy}phenyl)propanoic acid] |
| 34 | 215 | CCc1ccc(-n2ccc(C(F)(F)F)c2COc2c(F)cc(CCCO)cc2F)cn1 [Compound 55, 3-(4-[[1-(6-ethylpyridin-3-yl)-3-(trifluoromethyl)-1H-pyrrol-2-yl]methoxy]-3,5-difluorophenyl)propan-1-ol] |
| 115 | 497 | CCc1ccc(-n2ccc(C(F)(F)F)c2COc2ccc(CCCO)c(F)c2F)cn1 [Compound 54, 3-(4-[[1-(6-ethylpyridin-3-yl)-3-(trifluoromethyl)-1H-pyrrol-2-yl]methoxy]-2,3-difluorophenyl)propan-1-ol] |
| 112 | 1520 | O=C(O)CCc1cc(F)c(OCc2c(C(F)(F)F)ccn2-c2ccc(Br)cc2)c(F)c1 [Compound 22, 3-(4-{[1-(4-Bromophenyl)-3-(trifluoromethyl)-1H-pyrrol-2-yl]methoxy}-3,5-difluorophenyl)propanoic acid] |
| 280 | – | Cc1cc(CCC(=O)O)ccc1OCc1c(C(F)(F)F)ccn1-c1ccc(F)cc1 [Compound 86, 3-(4-{[1-(4-Fluorophenyl)-3-(trifluoromethyl)-1H-pyrrol-2-yl]methoxy}-3-methylphenyl)propanoic acid] |
